Like-named read-outs stand apart in the source and are kept apart here.

In general, solubility refers to the concentration that dissolves in the medium under given conditions.

Data set [1] is described as follows: ADME solubility determination at pH 2.0 and pH 7.4. It counts as physicochemical. As to conditions: aqueous buffer, thermodynamic from solid, LC-MS/MS. As to the method:
Certain Compounds of the Disclosure were assessed for ADME solubility at pH 2.0 and pH 7.4.
Stock solutions were prepared by adding each compound to DMSO at a concentration of 10 mM. Samples were prepared by adding 50 μL of each stock solution to separate vials. The vials were loaded onto a 96-well rack and dried. 500 μL of Phosphate Buffered Saline (PBS) pH 7.4 or PBS pH 2.0 were added into each vial. The vials were then shaken at 25° C. and 1,100 rpm for 24 hours.
After 24 hours, the vials were centrifuged at 3220 G and 25° C. for 30 minutes. The supernatant fluid was analyzed by LC-MS/MS against a standard of known concentration. The solubility of each sample was then calculated using the equation below:
[formula] where DF is the dilution factor.

A short description of data set [2]: Liver microsomal stability, human liver microsomes. It counts as in vitro ADME. As to conditions: 1 μM compound, NADPH, read-out: t1/2 (min) in HLM. As to the method:
(§1) Certain Compounds of the Disclosure were assessed for ADME metabolic stability in human liver microsomes (HLM) and rat liver microsomes (RLM).
(§2) Samples were prepared by adding 222.5 μL of a master solution (100 mM phosphate buffer and 1 mg/mL liver microsomes (HLM or RLM)) and 25 μL of a 10 mM NADPH solution to incubation plates, which were then warmed for 10 min. Each compound was separately dissolved in DMSO to prepare 10 mM stock solutions, which were then diluted to 100 μM with acetonitrile. A reaction was started by adding 2.5 μL of the 100 μM solution of each compound to separate incubation plates such that the final concentration of for each compound in each plate was 1 μM.
(§3) 25 μL aliquots of each sample were taken at 0.5, 5, 10, 15, 20 and 30 minutes, and the reaction was stopped by adding 5 volumes of cold acetonitrile with IS (100 nM alprazolam, 200 nM caffeine and 100 nM tolbutamide). The samples were then centrifuged at 3,220 G for 30 minutes, and 100 μL of the supernatant fluid was mixed with 100 μL of ultra-pure H2O.
(§4) The samples were then analyzed by LC-MS/MS. Peak areas were determined from extracted ion chromatograms. Slope values (k) were determined by linear regression of the natural logarithm of the remaining percentage of the compound vs. incubation time curve. […] The in vitro half-life (min) was converted into the in vitro intrinsic clearance (in vitro CLint, in μL/min/mg protein) using the following equation: […]
For orientation: Liver microsomes are a subcellular fraction often used to study metabolism.

A short description of data set [3]: Liver microsomal stability, rat liver microsomes. The format is in vitro ADME. The conditions noted are these: 1 μM compound, NADPH, read-out: t1/2 (min) in RLM. As for the experimental part: as §1, §2, §3, §4
The mark [4] stands for this setting: PBS pH 2.0, shaken at 25° C. for 24 hours, read-out: Solubility at pH 2.0.
Setting [5] is: PBS pH 7.4, shaken at 25° C. for 24 hours, read-out: Solubility at pH 7.4.
The mark [6] stands for this setting: phosphate buffered saline, PBS pH 2.0, shaken at 25° C. for 24 hours, read-out: Solubility at pH 2.0.
The mark [7] stands for this setting: phosphate buffered saline, PBS pH 7.4, shaken at 25° C. for 24 hours, read-out: Solubility at pH 7.4.

Consider `COc1ncnc(C2CC2)c1-c1ncc2cnn(Cc3ccc(-c4nc(C(F)(F)F)cn4C)c(F)c3)c2n1` [Example 17], for which the solubility at 24 h in data set [1] (setting [4]) and in data set [1] (setting [5]) was below 10 µM throughout. Also, the half-life at 1 μM in data set [2] and in data set [3] was above 25 min each time.

Regarding `CCn1cc(C(F)(F)F)nc1-c1ccc(Cn2ncc3cnc(-c4c(OC)ncnc4C4CC4)nc32)cc1F` [Example 18], the solubility at 24 h in data set [1] (setting [4]) and in data set [1] (setting [5]) was below 10 µM throughout. The half-life at 1 μM in data set [2] and in data set [3] was above 25 min each time.

With `COc1ncnc(C2CC2)c1-c1ncc2cnn(Cc3ccc(-c4nc(C(F)(F)F)cn4C(C)C)c(F)c3)c2n1` [Example 19], the solubility at 24 h in data set [1] (setting [4]) and in data set [1] (setting [5]) was above 10 µM in each case. The half-life at 1 μM in data set [2] and in data set [3] was above 25 min each time.

For the compound `COc1ncnc(C2CC2)c1-c1ncc2cnn(Cc3ccc(-c4nc(C(F)(F)F)cn4C)cc3F)c2n1` [Example 20], the solubility at 24 h in data set [1] (setting [4]) and in data set [1] (setting [5]) was below 10 µM each time. In addition, the half-life at 1 μM in data set [2] and in data set [3] was above 25 min in each case.

As for `CSc1cccc(C)c1-c1ncc2cnn(Cc3ccc(-c4nc(C(F)(F)F)cn4C)cc3)c2n1` [Example 21], the solubility at 24 h in data set [1] (setting [4]) and in data set [1] (setting [5]) was below 10 µM in each case. The half-life at 1 μM in data set [2] and in data set [3] was below 25 min in each case.

With `Cc1cc(C(F)(F)F)nn1-c1ccc(Cn2ncc3cnc(-c4ccccc4C(C)C)nc32)cc1` [Example 23], the solubility at 24 h in data set [1] (setting [4]) and in data set [1] (setting [5]) was below 10 µM in each case. For the same compound, the figures for the half-life at 1 μM in data set [2] and in data set [3] were above 25 min and below 25 min, respectively.

As for `CC(C)c1ccccc1-c1ncc2cnn(C(C)c3ccc(-c4nc(C(F)(F)F)cn4C)cc3)c2n1` (stereo not drawn) [Example 24], the solubility at 24 h in data set [1] (setting [4]) and in data set [1] (setting [5]) was below 10 µM each time. In addition, the half-life at 1 μM in data set [2] and in data set [3] was below 25 min throughout.

For the compound `Cc1nn(Cc2ccc(-c3nc(C(F)(F)F)cn3C)cc2)c2nc(-c3ccccc3C(C)C)ncc12` [Example 25], the solubility at 24 h in data set [1] (setting [4]) and in data set [1] (setting [5]) was below 10 µM throughout. Moreover, the half-life at 1 μM in data set [2] and in data set [3] was below 25 min in each case.

Regarding `Cc1cc(C(F)(F)F)nn1-c1ccc(Cn2ncc3cnc(-c4cccnc4C(C)C)nc32)cc1` [Example 26], the solubility at 24 h is above 10 µM in data set [1] (setting [4]) and below 10 µM in data set [1] (setting [5]). Besides, the half-life at 1 μM in data set [2] was above 25 min; in data set [3], below 25 min.

On to `COc1ncnc(C2CC2)c1-c1ncc2cnn(Cc3ccc(-n4nc(C(F)(F)F)cc4C)cc3)c2n1` [Example 27], for which the solubility at 24 h in data set [1] (setting [4]) and in data set [1] (setting [5]) was below 10 µM in each case. Further, the half-life at 1 μM in data set [2] and in data set [3] was above 25 min in each case.

Consider `COc1ncnc(C2CC2)c1-c1nc(OC)c2cnn(Cc3ccc(-n4nc(C(F)(F)F)cc4C)cc3)c2n1` [Example 28], for which the solubility at 24 h in data set [1] (setting [4]) and in data set [1] (setting [5]) was below 10 µM each time. Further, the half-life at 1 μM in data set [2] and in data set [3] was above 25 min each time.

Take `COc1ncnc(C2CC2)c1-c1ncc2cnn(Cc3ccc(-n4nc(C(F)(F)F)cc4C(C)C)cc3)c2n1` [Example 29]: the solubility at 24 h in data set [1] (setting [4]) and in data set [1] (setting [5]) was below 10 µM each time. Further, the half-life at 1 μM in data set [2] and in data set [3] was above 25 min throughout.

On to `COc1ncnc(C2CC2)c1-c1ncc2cnn(Cc3ccc(-n4nc(C(F)(F)F)cc4-c4ccco4)cc3)c2n1` [Example 30, 6-(4-cyclopropyl-6-methoxypyrimidin-5-yl)-1-(4-(5-(furan-2-yl)-3-(trifluoromethyl)-1H-pyrazol-1-yl)benzyl)-1H-pyrazolo[3,4-d]pyrimidine], for which the solubility at 24 h in data set [1] (setting [4]) and in data set [1] (setting [5]) was below 10 µM in each case. Also, the half-life at 1 μM in data set [2] and in data set [3] was below 25 min throughout.

As for `Cc1cc(C(F)F)nn1-c1ccc(Cn2ncc3cnc(-c4cccnc4C(C)C)nc32)cc1` [Example 32], the solubility at 24 h is above 10 µM in data set [1] (setting [4]) and below 10 µM in data set [1] (setting [5]). For the same compound, the half-life at 1 μM in data set [2] and in data set [3] was below 25 min each time.

Regarding `COc1ncnc(C)c1-c1ncc2cnn(Cc3ccc(-c4nc(C(F)(F)F)cn4C)cc3)c2n1` [Example 33], the solubility at 24 h in data set [1] (setting [4]) and in data set [1] (setting [5]) was above 10 µM throughout. For the same compound, the half-life at 1 μM in data set [2] and in data set [3] was above 25 min in each case.

For the compound `COc1ncnc(C2CC2)c1-c1ncc2cnn(Cc3ccc(-c4cn(C(C)C)c(C(F)(F)F)n4)cc3)c2n1` [Example 34], the solubility at 24 h in data set [1] (setting [4]) and in data set [1] (setting [5]) was below 10 µM each time. Also, the half-life at 1 μM in data set [2] and in data set [3] was above 25 min each time.

Take `COc1cc(Cn2ncc3cnc(-c4c(OC)ncnc4C4CC4)nc32)ccc1-c1cn(C)c(C(F)(F)F)n1` [Example 35]: the solubility at 24 h in data set [1] (setting [4]) and in data set [1] (setting [5]) was below 10 µM in each case. In addition, the half-life at 1 μM in data set [2] and in data set [3] was above 25 min each time.

As for `COc1ncnc(C2CC2)c1-c1ncc2cnn(Cc3ccc(-n4nc(C(F)(F)F)cc4OC)cc3)c2n1` [Example 37], the solubility at 24 h in data set [1] (setting [4]) and in data set [1] (setting [5]) was below 10 µM each time. Moreover, the half-life at 1 μM in data set [2] and in data set [3] was above 25 min each time.

Consider `COc1ncnc(C2CC2)c1-c1ncc2cnn(Cc3ccc(-n4nc(C(F)(F)F)cc4SC)cc3)c2n1` [Example 38], for which the solubility at 24 h in data set [1] (setting [4]) and in data set [1] (setting [5]) was below 10 µM in each case. In addition, the half-life at 1 μM in data set [2] and in data set [3] was below 25 min each time.

Consider `CCOc1ncnc(C2CC2)c1-c1ncc2cnn(Cc3ccc(-c4nc(C(F)(F)F)cn4C)cc3)c2n1` [Example 39], for which the results for the solubility at 24 h in data set [1] (setting [6]) and in data set [1] (setting [7]) were above 10 µM and below 10 µM, respectively. Besides, the half-life at 1 μM in data set [2] and in data set [3] was below 25 min each time.

For `CC(C)Oc1ncnc(C2CC2)c1-c1ncc2cnn(Cc3ccc(-c4nc(C(F)(F)F)cn4C)cc3)c2n1` [Example 40], the values for the solubility at 24 h in data set [1] (setting [4]) and in data set [1] (setting [5]) were above 10 µM and below 10 µM, respectively. Also, the half-life at 1 μM in data set [2] and in data set [3] was below 25 min throughout.

For `COCCOc1ncnc(C2CC2)c1-c1ncc2cnn(Cc3ccc(-c4nc(C(F)(F)F)cn4C)cc3)c2n1` [Example 42], the solubility at 24 h in data set [1] (setting [4]) and in data set [1] (setting [5]) was above 10 µM each time. Also, the half-life at 1 μM in data set [2] and in data set [3] was below 25 min throughout.

`COCCOc1ncnc(C2CC2)c1-c1ncc2cnn(Cc3ccc(-n4nc(C(F)(F)F)cc4C)cc3)c2n1` [Example 43]: the solubility at 24 h was below 10 µM in data set [1] (setting [4]) and above 10 µM in data set [1] (setting [5]). Further, the half-life at 1 μM in data set [2] and in data set [3] was below 25 min in each case.

With `Cc1cnn(C(C)C)c1-c1ncc2cnn(Cc3ccc(-n4nc(C(F)(F)F)cc4C)cc3)c2n1` [Example 44], the solubility at 24 h in data set [1] (setting [4]) and in data set [1] (setting [5]) was below 10 µM throughout. The half-life at 1 μM in data set [2] and in data set [3] was below 25 min each time.

Take `Cc1ncnc(C(C)C)c1-c1ncc2cnn(Cc3ccc(-n4nc(C(F)(F)F)cc4C)cc3)c2n1` [Example 45]: the solubility at 24 h in data set [1] (setting [6]) and in data set [1] (setting [7]) was below 10 µM each time. The half-life at 1 μM in data set [2] and in data set [3] was below 25 min each time.

Consider `CSc1ncnc(C)c1-c1ncc2cnn(Cc3ccc(-n4nc(C(F)(F)F)cc4C)cc3)c2n1` [Example 46], for which the solubility at 24 h in data set [1] (setting [4]) and in data set [1] (setting [5]) was below 10 µM throughout. The half-life at 1 μM in data set [2] and in data set [3] was below 25 min throughout.

As to `COCCOc1ncnc(C)c1-c1ncc2cnn(Cc3ccc(-n4nc(C(F)(F)F)cc4C)cc3)c2n1` [Example 47], the solubility at 24 h in data set [1] (setting [4]) and in data set [1] (setting [5]) was above 10 µM in each case. For the same compound, the half-life at 1 μM in data set [2] and in data set [3] was below 25 min in each case.

Source of the values: US11485736B2 (KSQ Therapeutics, Inc., priority 2018, dated 2022).
